The values below are quoted from earlier work in patent US6375930B2, “Membrane incorporation of texaphyrins” (Board of Regents, The University of Texas System, priority 1996, dated 2002).

The conditions of data set [1]: require hydrophobic vehicles for administration.
The conditions of data set [2]: Levy, Semin. Oncol. 1994.

Take tin purpurin: the “solubility in aqueous solutions” value in data set [1] was “insoluble”.

For porfimer sodium, the “duration of cutaneous photosensitivity” value in data set [2] is “up to 6 weeks”.

As for “benzoporphyrin derivative [BPD verteporfin]”, the “duration of cutaneous photosensitivity” value in data set [2] was “a few days”. Besides, in data set [1], the “solubility in aqueous solutions” value is “insoluble”.
